Measured values as given in PubChem BioAssay AID330 (DTP/NCI, 2004).
Where “and” joins values, the source holds several entries; their conditions need not be identical. Equal values may be shown once. Toxic doses and inconclusive results are not listed.

System: P388 leukemia ip, CD2F1 mice, survival T/C
Assay: NCI In Vivo Anticancer Drug Screen. Data for tumor model P388 Leukemia (intraperitoneal) in CD2F1 (CDF1) mice
Conditions: endpoint: median survival time, higher = longer survival
Procedure, shortened: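 Mice carrying the transplanted tumor received test compound or vehicle. Survival was recorded in each group, and the value is the treated-group measurement divided by that of the vehicle-treated control group.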

[1] = dose: 100.0 mg/kg/injection, schedule: Q01DX009 (ip), vehicle: saline
[2] = dose: 100.0 mg/kg/injection, schedule: Q04DX003 (ip), vehicle: saline
[3] = dose: 200.0 mg/kg/injection, schedule: Q04DX003 (ip), vehicle: saline
[4] = dose: 50.0 mg/kg/injection, schedule: Q01DX009 (ip), vehicle: saline with Tween-80
[5] = dose: 100.0 mg/kg/injection, schedule: Q01DX009 (ip), vehicle: saline with Tween-80
[6] = dose: 50.0 mg/kg/injection, schedule: Q01DX005 (ip), vehicle: saline with Tween-80
[7] = dose: 100.0 mg/kg/injection, schedule: Q01DX005 (ip), vehicle: saline with Tween-80
[8] = dose: 200.0 mg/kg/injection, schedule: Q01DX005 (ip), vehicle: saline with Tween-80
[9] = dose: 50.0 mg/kg/injection, schedule: Q01DX009 (ip), vehicle: saline
[10] = dose: 200.0 mg/kg/injection, schedule: Q01DX009 (ip), vehicle: saline
[11] = dose: 12.5 mg/kg/injection, schedule: Q01DX009 (ip), vehicle: saline
[12] = dose: 25.0 mg/kg/injection, schedule: Q01DX009 (ip), vehicle: saline
[13] = dose: 100.0 mg/kg/injection, schedule: Q01DX001 (ip), vehicle: Klucel (hydroxypropylcellulose) (HPC)
[14] = dose: 200.0 mg/kg/injection, schedule: Q01DX001 (ip), vehicle: Klucel (hydroxypropylcellulose) (HPC)
[15] = dose: 100.0 mg/kg/injection, schedule: Q01DX001 (ip), vehicle: saline with Tween-80
[16] = dose: 200.0 mg/kg/injection, schedule: Q01DX001 (ip), vehicle: saline with Tween-80
[17] = dose: 400.0 mg/kg/injection, schedule: Q01DX001 (ip), vehicle: saline with Tween-80
[18] = dose: 50.0 mg/kg/injection, schedule: Q01DX005 (ip), vehicle: Klucel (hydroxypropylcellulose) (HPC)
[19] = dose: 100.0 mg/kg/injection, schedule: Q01DX005 (ip), vehicle: Klucel (hydroxypropylcellulose) (HPC)
[20] = dose: 200.0 mg/kg/injection, schedule: Q01DX005 (ip), vehicle: Klucel (hydroxypropylcellulose) (HPC)
[21] = dose: 50.0 mg/kg/injection, schedule: Q01DX009 (ip), vehicle: Klucel (hydroxypropylcellulose) (HPC)
[22] = dose: 100.0 mg/kg/injection, schedule: Q01DX009 (ip), vehicle: Klucel (hydroxypropylcellulose) (HPC)
[23] = dose: 200.0 mg/kg/injection, schedule: Q01DX009 (ip), vehicle: Klucel (hydroxypropylcellulose) (HPC)
[24] = dose: 60.0 mg/kg/injection, schedule: Q01DX005 (ip), vehicle: saline with Tween-80
[25] = dose: 120.0 mg/kg/injection, schedule: Q01DX005 (ip), vehicle: saline with Tween-80
[26] = dose: 240.0 mg/kg/injection, schedule: Q01DX005 (ip), vehicle: saline with Tween-80
[27] = dose: 12.5 mg/kg/injection, schedule: Q01DX009 (ip), vehicle: Klucel (hydroxypropylcellulose) (HPC)
[28] = dose: 25.0 mg/kg/injection, schedule: Q01DX009 (ip), vehicle: Klucel (hydroxypropylcellulose) (HPC)

## O=C(O)C(=O)O.OO.OO.OO.[Nb]
[1]
  T/C: 123 % of control
[2]
  T/C: 100 % of control

## COc1ccccc1C1C2CCCC(C2=O)C(c2ccccc2OC)N1C (centres undefined)
[2]
  T/C: 98 % of control
[3]
  T/C: 99 % of control
dose: 400.0 mg/kg/injection, schedule: Q04DX003 (ip), vehicle: saline
  T/C: 99 % of control

## CCOc1cc2c(cc1Cc1ccc(OC)cc1)OCO2
dose: 50.0 mg/kg/injection, schedule: Q01DX005 (ip), vehicle: distilled water + alcohol
  T/C: 108 % of control
dose: 100.0 mg/kg/injection, schedule: Q01DX005 (ip), vehicle: distilled water + alcohol
  T/C: 95 % of control
dose: 200.0 mg/kg/injection, schedule: Q01DX005 (ip), vehicle: distilled water + alcohol
  T/C: 109 % of control

## Clc1ccc(OCC(Cn2ccnc2)c2ccc(Cl)cc2)cc1 (centres undefined)
[4]
  T/C: 100 % of control
[5]
  T/C: 100 % of control

## CCn1c2ccccc2c2cc(NC(=O)N3CCCCC3)ccc21
[6]
  T/C: 95 % of control
[7]
  T/C: 95 % of control
[8]
  T/C: 90 % of control

## NC(=O)CN1CCN(c2ccnc3cc(Cl)ccc23)CC1
dose: 25.0 mg/kg/injection, schedule: Q04DX002 (ip), vehicle: saline with Tween-80
  T/C: 101 % of control
dose: 50.0 mg/kg/injection, schedule: Q04DX002 (ip), vehicle: saline with Tween-80
  T/C: 99 % of control
dose: 100.0 mg/kg/injection, schedule: Q04DX002 (ip), vehicle: saline with Tween-80
  T/C: 99 % of control and 103 % of control

## CCCCOCCOCCOC1C2CC3C1C3(OCCOCCOCCCC)C2 (centres undefined)
[9]
  T/C: 104 % of control
[1]
  T/C: 99 % of control
[10]
  T/C: 104 % of control

## CC(C)COCCCN
[11]
  T/C: 100 % of control
dose: 12.5 mg/kg/injection, schedule: Q04DX003 (ip), vehicle: saline
  T/C: 91 % of control
[12]
  T/C: 100 % of control
dose: 25.0 mg/kg/injection, schedule: Q04DX003 (ip), vehicle: saline
  T/C: 100 % of control
[9]
  T/C: 100 % of control
dose: 50.0 mg/kg/injection, schedule: Q04DX003 (ip), vehicle: saline
  T/C: 91 % of control

## CN1C(=S)NC2C(O)C(O)C(CO)OC21 (centres undefined)
[6]
  T/C: 97 % of control
[7]
  T/C: 99 % of control
[8]
  T/C: 99 % of control

## CN(C)CCn1nc2n(c(=O)c1=O)CC(=O)N(C)c1ccc(Cl)cc1-2
[13]
  T/C: 100 % of control
[14]
  T/C: 101 % of control
dose: 400.0 mg/kg/injection, schedule: Q01DX001 (ip), vehicle: Klucel (hydroxypropylcellulose) (HPC)
  T/C: 96 % of control

## COc1cc2ccccc2c2c1OP(=O)(O)Oc1c(OC)cc3ccccc3c1-2
[15]
  T/C: 100 % of control
[16]
  T/C: 92 % of control
[17]
  T/C: 114 % of control

## CCCn1c(C)nc2[nH]ncc2c1=O
[18]
  T/C: 100 % of control
[19]
  T/C: 98 % of control
[20]
  T/C: 92 % of control

## Cc1csc(/N=C2\N/C(=N\c3nc(C)cs3)c3ccccc32)n1
[4]
  T/C: 88 % of control
[5]
  T/C: 86 % of control

## CCn1nc(C(=O)O)c(=O)c2cc3c(cc21)OCO3
[21]
  T/C: 96 % of control
[22]
  T/C: 97 % of control
[23]
  T/C: 98 % of control

## O=c1ccc2ccc3occc(=O)c3c2o1
[6]
  T/C: 106 % of control
[7]
  T/C: 108 % of control
[8]
  T/C: 98 % of control

## Cc1nc2ccccc2c(=O)n1-c1ccc(-c2n[nH]c(=S)n2-c2ccccc2)cc1
[18]
  T/C: 105 % of control
[19]
  T/C: 110 % of control
[20]
  T/C: 102 % of control

## CCCCCCCCCCCC(=O)Nc1ncnc2nc[nH]c12
[21]
  T/C: 93 % of control
[22]
  T/C: 95 % of control
[23]
  T/C: 98 % of control
dose: 400.0 mg/kg/injection, schedule: Q01DX009 (ip), vehicle: Klucel (hydroxypropylcellulose) (HPC)
  T/C: 104 % of control

## CC1(C)c2c3ccccc3cc3cccc(c23)[S+]1c1ccccc1 (centres undefined)
dose: 5.0 mg/kg/injection, schedule: Q04DX003 (ip), vehicle: saline
  T/C: 100 % of control
dose: 10.0 mg/kg/injection, schedule: Q04DX003 (ip), vehicle: saline
  T/C: 104 % of control
dose: 20.0 mg/kg/injection, schedule: Q04DX003 (ip), vehicle: saline
  T/C: 108 % of control

## CCCCOC1OCN(CCC)CC1(C)C (centres undefined)
[4]
  T/C: 111 % of control and 113 % of control
[5]
  T/C: 122 % of control

## COc1c(NC=O)c2c(c([N+](=O)[O-])c1OC)C(=O)OC2
[18]
  T/C: 102 % of control
[19]
  T/C: 99 % of control
[20]
  T/C: 98 % of control

## O=S(=O)(Nc1cccc(Cl)c1)c1ccc(F)cc1
[24]
  T/C: 96 % of control
[25]
  T/C: 99 % of control
[26]
  T/C: 101 % of control

## OCC1OC2OC3C(CO)OC(OC4C(CO)OC(OC5C(CO)OC(OC6C(CO)OC(OC7C(CO)OC(OC1C(O)C2O)C(O)C7O)C(O)C6O)C(O)C5O)C(O)C4O)C(O)C3O (centres undefined)
[9]
  T/C: 94 % of control
[1]
  T/C: 89 % of control
[10]
  T/C: 96 % of control

## CCC(=O)NC1=C(N2CC2C)C(=O)C(NC(=O)CC)=C(N2CC2C)C1=O (centres undefined)
[27]
  T/C: 210 % of control
[11]
  T/C: 164 % of control
[28]
  T/C: 103 % of control
[12]
  T/C: 117 % of control

## CSc1nnc(N)s1
[4]
  T/C: 106 % of control
[5]
  T/C: 93 % of control
dose: 200.0 mg/kg/injection, schedule: Q01DX009 (ip), vehicle: saline with Tween-80
  T/C: 100 % of control

## C=C1CC2(CCOc3ccc(Cl)cc32)OC1=O (centres undefined)
dose: 25.0 mg/kg/injection, schedule: Q04DX003 (ip), vehicle: saline with Tween-80
  T/C: 110 % of control
dose: 50.0 mg/kg/injection, schedule: Q04DX003 (ip), vehicle: saline with Tween-80
  T/C: 118 % of control
dose: 100.0 mg/kg/injection, schedule: Q04DX003 (ip), vehicle: saline with Tween-80
  T/C: 101 % of control and 116 % of control
dose: 200.0 mg/kg/injection, schedule: Q04DX003 (ip), vehicle: saline with Tween-80
  T/C: 101 % of control

## Cc1ccc(SSCCN)cc1
dose: 12.5 mg/kg/injection, schedule: Q01DX005 (ip), vehicle: saline
  T/C: 104 % of control
dose: 25.0 mg/kg/injection, schedule: Q01DX005 (ip), vehicle: saline
  T/C: 104 % of control
dose: 50.0 mg/kg/injection, schedule: Q01DX005 (ip), vehicle: saline
  T/C: 108 % of control and 110 % of control

## c1ccc2c(-c3nccc4ccccc34)nccc2c1
[6]
  T/C: 99 % of control
[7]
  T/C: 103 % of control
[8]
  T/C: 92 % of control

## O=C1OCC2=Nc3cccc4cccc(c34)N12
[18]
  T/C: 101 % of control
[19]
  T/C: 94 % of control
[20]
  T/C: 98 % of control

## N#CC1(Nc2ccccc2)CCCC1
dose: 3.13 mg/kg/injection, schedule: Q01DX009 (ip), vehicle: Klucel (hydroxypropylcellulose) (HPC)
  T/C: 104 % of control
dose: 6.25 mg/kg/injection, schedule: Q01DX009 (ip), vehicle: Klucel (hydroxypropylcellulose) (HPC)
  T/C: 104 % of control and 92 % of control and 96 % of control
[27]
  T/C: 100 % of control and 90 % of control and 98 % of control
[28]
  T/C: 100 % of control and 96 % of control
[21]
  T/C: 104 % of control

## Cc1ccc(-c2cc3cc4c(cc3[nH]2)Sc2ccccc2O4)cc1
[13]
  T/C: 98 % of control
[14]
  T/C: 89 % of control

## COC(=O)Cn1/c(=N\N=C(/C)c2ccccc2)sc2ccccc21
[15]
  T/C: 102 % of control
[16]
  T/C: 99 % of control
[17]
  T/C: 99 % of control

## Cc1ccc(-n2cc(-c3ccc(Cl)cc3)c3c(N)ncnc32)cc1
[24]
  T/C: 105 % of control
[25]
  T/C: 104 % of control
[26]
  T/C: 88 % of control

## Oc1ccccc1C1=NC(c2ccccc2)NC(c2ccccc2)C1 (centres undefined)
[4]
  T/C: 88 % of control
[5]
  T/C: 93 % of control

## CCOCCC(O)CC (centres undefined)
[1]
  T/C: 90 % of control
[2]
  T/C: 122 % of control
[10]
  T/C: 95 % of control
[3]
  T/C: 104 % of control
dose: 400.0 mg/kg/injection, schedule: Q01DX009 (ip), vehicle: saline
  T/C: 104 % of control

## O=C(NC(Cc1ccc(Br)cc1)C(=O)O)c1ccc(I)cc1 (centres undefined)
[18]
  T/C: 98 % of control
[19]
  T/C: 98 % of control
[20]
  T/C: 107 % of control
